# What was measured:
# BALL-1 cells = assay: MTT assay, BALL-1 cells; assay type: cell-based, human; conditions: 0.01, 0.05, 0.1, 0.5, and 1 μM, 48 hours
# Procedure: BALL-1 cells of a cell line derived from […], TKG0210 cells of a human myeloid leukemia cell line, and TKG0377 cells of a human T cell acute leukemia cell line were seeded in 96-well plates at 2.5×10^4 cells/well/100 μL, and cultured for 48 hours in the presence of 3EZ,20Ac-ingenol at final concentrations of 0 (control), 0.5, 1, 5, and 10 μM. Subsequently, cell proliferation was examined by MTT assay using a Cell Proliferation Kit 1 (Roche Applied Science).
# BALL-1 cells were exposed to 3EZ,20Ac-ingenol, 3EE,20Ac-ingenol, 20Ac-ingenol, and ingenol at concentrations of 0.01, 0.05, 0.1, 0.5, and 1 μM for 48 hours. Thereafter, cell proliferation was examined by MTT assay. Cells that were not exposed to the chemical were used as controls. The chemical formulas of 3EZ,20Ac-ingenol, 3EE,20Ac-ingenol, and 20Ac-ingenol are as described above. The chemical formula of ingenol is shown in the following Formula (7).
# Panc-1 cells = assay: MTT assay, Panc-1 cells; assay type: cell-based, human; conditions: 48 hours, read-out: IC50 with respect to the Panc-1 cells
# Procedure: JeKo-1 cells of a cell line derived from a human mantle cell lymphoma were seeded in a 96-well plate at 1×10^4 cells/well/100 μL. In addition, Panc-1 cells of a cell line derived from a human pancreatic cancer were seeded in a 96-well plate at 3×10^3 cells/well/100 μL.
# Subsequently, 3EZ,20Ac-ingenol at final concentrations of 0 (control), 0.1, 0.5, 1, 5, and 10 μM was added the wells of the respective cells, and culturing was performed for 48 hours. Subsequently, cell proliferation was examined by MTT assay using a Cell Proliferation Kit I (Roche Applied Science).
# First, JeKo-1 cells were seeded in a 96-well plate at 1×10^4 cells/well/100 μL. Subsequently, irinotecan at a final concentration of 0 (control), 0.5, 1, 5, 10, 20, and 30 μM was added to the wells of the cells and culturing was performed for 48 hours. In addition, Panc-1 cells were seeded in a 96-well plate at 3×10^3 cells/well/100 μL. Subsequently, irinotecan at a final concentration of 0 (control), 0.5, 1, 5, 10, 20, 30, and 50 μM was added to the wells of the cells and culturing was performed for 48 hours. Subsequently, cell proliferation was examined by MTT assay using a Cell Proliferation Kit I (Roche Applied Science).
# p21 protein = assay: Western blotting, p21 protein, Panc-1 cells; assay type: cell-based, human; conditions: 3 μM
# Procedure: Specifically, JeKo-1 cells were cultured for 0 (control), 12, 24 and 48 hours in the presence of 0.5 μM of 3EZ,20Ac-ingenol. In addition, Panc-1 cells were cultured for 0 (control), 12, 24, and 48 hours in the presence of 3 μM of 3EZ,20Ac-ingenol.
# Subsequently, phosphorylation of H2AX in the respective cells was detected using an anti-phosphorylated-H2AX antibody (Millipore). In addition, p21 protein was detected using an anti-p21 antibody (Cell Signaling Technology). Furthermore, as a loading control, actin protein was detected using an anti-actin antibody (Sigma).
# ATR protein = assay: Western blotting, ATR protein, Panc-1 cells; assay type: cell-based, human; conditions: 3 μM
# Procedure: Specifically, JeKo-1 cells were cultured for 0 (control), 12, 24, and 48 hours in the presence of 0.5 μM of 3EZ,20Ac-ingenol. In addition, Panc-1 cells were cultured for 0 (control), 12, 24, and 48 hours in the presence of 3 μM of 3EZ,20Ac-ingenol.
# Subsequently, ATR protein, p53 protein, and phosphorylated p53 (hereinafter also referred to as “p-p53”) protein in the respective cells were respectively detected using an anti-ATR antibody (Cell Signaling Technology), an anti-p53 antibody (Santa Cruz), and an anti-p-p53 antibody (Cell Signaling Technology). Furthermore, as a loading control, actin protein was detected using an anti-actin antibody (Sigma).
# [1] = tested on: phosphorylated Akt (Ser^473); assay: Western blotting, p-Akt (Ser473), TKG0210 cells; assay type: cell-based, human; conditions: 0.5 μM
# Procedure: The effect of 3EZ,20Ac-ingenol treatment on a PI3K/Akt signaling pathway was examined. Specifically, BALL-1 cells, TKG0210 cells, and TKG0377 cells were cultured for 48 hours in the presence of 3EZ,20Ac-ingenol at a final concentration of 0.5 μM, and by Western blotting using an anti-p-Akt (Ser^473) antibody (Cell Signaling Technology), phosphorylation of the 473th serine residue of an Akt protein in respective fractions of the entire cell, a nucleus, and a cytoplasm was analyzed. In addition, cells cultured in the absence of 3EZ,20Ac-ingenol were used as controls.
# BALL-1 cells, TKG0210 cells, and TKG0377 cells were cultured for 24 and 48 hours in the presence of 3EZ,20Ac-ingenol at a final concentration of 0.5 μM, and abundances of p-Akt in the nuclear fraction and the cytoplasm fraction were analyzed by Western blotting. In addition, respective cells cultured in the absence of 3FZ,20Ac-ingenol were used as controls.
# p-Akt (Ser^473) = assay: Western blotting, p-Akt, JeKo-1 cells; assay type: cell-based, human; conditions: 0.5 μM
# Procedure: Specifically, first, JeKo-1 cells were cultured for 0 (control), 12, 24, and 48 hours in the presence of 0.5 μM of 3EZ,20Ac-ingenol. In addition, Panc-1 cells were cultured for 0 (control), 12, 24, and 48 hours in the presence of 3 μM of 3EZ,20Ac-ingenol.
# Subsequently, by Western blotting using an anti-Akt antibody (Cell Signaling Technology) and an anti-p-Akt (Ser^473) antibody (Cell Signaling Technology), abundances of total amounts of Akt protein and p-Akt in the entire cell fractions, nuclear fractions, and cytoplasm fractions of the respective cells were analyzed. Furthermore, as a loading control, actin protein was detected using an anti-actin antibody (Sigma).
# DT40 cells = conditions: stop in the G2/M phase; cited from earlier work
# topoisomerase = conditions: cited from earlier work
compound,measurement,setting,value
"CCCCC/C=C\C=C\C(=O)O[C@H]1C(C)=C[C@]23C(=O)[C@@H](C=C(COC(C)=O)[C@@H](O)[C@]12O)[C@H]1[C@@H](C[C@H]3C)C1(C)C [3EZ,20Ac-ingenol, 3-O-(2′E,4′Z-decadienoyl)-20-O-acetylingenol]",inhibition of proliferation of the BALL-1 cells,BALL-1 cells,a significant level of inhibition of proliferation
same,IC50,Panc-1 cells,3000 nM
same,expression of p21 protein,p21 protein; 12 hours after treatment,induction of a high expression level of p21 protein was observed
same,expression of p21 protein,p21 protein; 48 hours after treatment,a rapid decrease in p21 protein was recognized
same,expression level of ATR protein,"ATR protein; 12 hours, further increase 24 hours after treatment",an increase in expression level of ATR protein was recognized
same,expression level of ATR protein,ATR protein; 48 hours after treatment,a decrease was recognized
same,abundance of p-Akt,"[1]; 24 and 48 hours, cytoplasm fraction and nuclear fraction",no decrease in abundance of p-Akt was observed
same,abundance of p-Akt,"[1]; 48 hours, cytoplasm fraction",remained almost unchanged
same,abundance of p-Akt,"[1]; 48 hours, entire cell",a decrease in abundance of phosphorylated Akt
same,abundance of p-Akt,"[1]; 48 hours, nuclear fraction",remained almost unchanged
same,abundance of p-Akt,"p-Akt (Ser^473); cytoplasm fraction, 12 to 48 hours",a decrease in abundance of p-Akt was clearly recognized
same,abundance of p-Akt,p-Akt (Ser^473); entire cell fraction,a slight decrease in abundance of p-Akt was observed
same,abundance of p-Akt,p-Akt (Ser^473); nuclear fraction,no change in an abundance of p-Akt was recognized
same,cell proliferation of DT40 cells,DT40 cells,stops cell proliferation of DT40 cells
same,DNA cleavage,topoisomerase,does not cause DNA cleavage

# Source: US11464750B2, “Anticancer agent and use thereof” (priority 2017, dated 2022)
